# Patent US20120107239A1, “Precursor of Molecular Probe for Pancreatic Islet Imaging and Use of the Same” (priority 2009, published 2012)
# Assays:
# SU receptor = target: T1, SU receptor (Mus musculus, UniProt B2RUS7); test: SU receptor binding experiment ([3H]-glibenclamide displacement on dispersed pancreatic islet cells); parameters: species or system mice
# T1 construct: the pancreatic islets isolated from the mice were dispersed into single cells; from tissue; host or cells: single cells dispersed from isolated mouse pancreatic islets
# Procedure: Next, the pancreatic islets isolated from the mice were dispersed into single cells to prepare 1.7×10^5 cells/sample. A solution containing [^3H]-glibendamide; which was obtained by labeling glibenclamide (4-[2-(5-Chloro-2-methoxybenzoylammo)ethyl]-N-(cyclohexylcarbamoyl)benzenesulfon amide, serving as an SU agent) with ^3H, was added to these cells so that the final concentration of the [^3H]-glibenclamide was 1.85 pmol/L. Subsequently, a reagent containing the compound (7) was added (final concentration of the compound (7): 1×10^−4 to 1×10^−12 M), and incubation was performed at room temperature for 1 hour. The reaction was stopped by filtration, and the radioactivity was measured with a liquid scintillation analyzer.
# Therefore, the molecular probe expressed as the formula (7) might have a SUR1 binding site.
# pancreatic islets = test: Three-dimensional imaging (PET) of a mouse; format: in vivo; conditions: 104 μCi intravenously, ddy mouse, image 10 minutes after administration, FIG. 3
# Procedure: The molecular probe (compound (6)) was used to perform three-dimensional imaging of a mouse. The molecular probe (104 μCi) was administered intravenously to a 6-week-old ddy mouse (which was male and weighted 25 g) under anesthesia. Then, the three-dimensional imaging was performed with the following PET apparatus and conditions.
# Imaging apparatus: eXplore Vista (product name, manufactured by General Electric Company)
# Imaging method: Static Scan
# Reconstruction: 2DOSEM (Dynamic OS-EM)
# The image in FIG. 3 was taken 10 minutes after the administration of the molecular probe (integrating time: 10 minutes). In FIG. 3, the portion indicated by the white circle is near the pancreas.
# SUR1 = SUR1 (Homo sapiens, UniProt Q09428); conditions: compared with nateglinide; cited from earlier work
# Sequence of SUR1 (Q09428 whole entry, species assumed): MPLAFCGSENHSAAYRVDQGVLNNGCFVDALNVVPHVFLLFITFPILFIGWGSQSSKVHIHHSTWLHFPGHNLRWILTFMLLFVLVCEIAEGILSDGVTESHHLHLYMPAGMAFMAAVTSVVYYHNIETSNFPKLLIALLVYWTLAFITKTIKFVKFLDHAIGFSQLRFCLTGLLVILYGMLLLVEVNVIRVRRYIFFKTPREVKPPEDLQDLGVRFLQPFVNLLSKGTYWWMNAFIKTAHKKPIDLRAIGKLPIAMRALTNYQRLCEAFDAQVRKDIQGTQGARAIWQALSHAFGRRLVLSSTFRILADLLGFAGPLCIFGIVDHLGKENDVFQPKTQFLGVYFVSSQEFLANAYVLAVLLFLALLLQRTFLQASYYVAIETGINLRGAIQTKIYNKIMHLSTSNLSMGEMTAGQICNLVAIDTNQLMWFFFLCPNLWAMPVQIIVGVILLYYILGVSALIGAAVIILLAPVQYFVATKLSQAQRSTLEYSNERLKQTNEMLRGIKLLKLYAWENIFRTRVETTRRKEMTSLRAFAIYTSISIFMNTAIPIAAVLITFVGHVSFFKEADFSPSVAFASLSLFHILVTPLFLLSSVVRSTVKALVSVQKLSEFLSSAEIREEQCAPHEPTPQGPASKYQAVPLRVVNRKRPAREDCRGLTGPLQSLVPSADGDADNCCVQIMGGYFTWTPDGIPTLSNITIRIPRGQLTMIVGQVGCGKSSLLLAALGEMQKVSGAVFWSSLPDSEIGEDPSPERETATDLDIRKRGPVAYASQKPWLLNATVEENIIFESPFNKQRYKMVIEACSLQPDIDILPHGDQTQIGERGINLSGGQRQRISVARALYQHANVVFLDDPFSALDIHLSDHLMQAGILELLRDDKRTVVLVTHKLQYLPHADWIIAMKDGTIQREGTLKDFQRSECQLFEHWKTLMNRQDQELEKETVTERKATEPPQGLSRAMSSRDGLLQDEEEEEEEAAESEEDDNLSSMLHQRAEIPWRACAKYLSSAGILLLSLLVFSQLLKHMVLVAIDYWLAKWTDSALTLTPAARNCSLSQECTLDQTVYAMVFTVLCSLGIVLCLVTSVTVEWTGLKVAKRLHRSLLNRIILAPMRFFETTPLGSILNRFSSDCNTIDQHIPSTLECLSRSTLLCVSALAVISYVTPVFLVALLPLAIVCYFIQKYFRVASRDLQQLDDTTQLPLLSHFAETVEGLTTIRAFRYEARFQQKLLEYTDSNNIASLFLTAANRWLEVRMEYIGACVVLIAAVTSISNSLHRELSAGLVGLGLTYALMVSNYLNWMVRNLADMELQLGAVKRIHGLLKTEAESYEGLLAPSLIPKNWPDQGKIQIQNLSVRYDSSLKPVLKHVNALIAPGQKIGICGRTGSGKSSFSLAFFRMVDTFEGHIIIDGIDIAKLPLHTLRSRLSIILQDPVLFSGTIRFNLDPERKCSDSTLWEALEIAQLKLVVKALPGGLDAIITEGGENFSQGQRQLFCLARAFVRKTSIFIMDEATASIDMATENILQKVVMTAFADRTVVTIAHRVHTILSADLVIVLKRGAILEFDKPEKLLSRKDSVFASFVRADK
# Sequence of SUR1 (Q14654 whole entry partner, species assumed): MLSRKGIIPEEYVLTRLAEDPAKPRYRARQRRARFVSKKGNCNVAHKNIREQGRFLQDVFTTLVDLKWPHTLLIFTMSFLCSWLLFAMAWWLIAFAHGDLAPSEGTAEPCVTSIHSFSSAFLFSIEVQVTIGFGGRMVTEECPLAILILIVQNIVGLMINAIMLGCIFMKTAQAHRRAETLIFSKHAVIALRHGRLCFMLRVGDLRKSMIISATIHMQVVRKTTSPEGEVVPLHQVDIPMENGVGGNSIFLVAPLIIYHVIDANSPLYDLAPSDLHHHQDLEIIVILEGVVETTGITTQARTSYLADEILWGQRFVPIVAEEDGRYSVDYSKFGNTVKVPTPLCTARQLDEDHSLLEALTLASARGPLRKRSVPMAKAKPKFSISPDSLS
# T1 sequence (B2RUS7 1-1588): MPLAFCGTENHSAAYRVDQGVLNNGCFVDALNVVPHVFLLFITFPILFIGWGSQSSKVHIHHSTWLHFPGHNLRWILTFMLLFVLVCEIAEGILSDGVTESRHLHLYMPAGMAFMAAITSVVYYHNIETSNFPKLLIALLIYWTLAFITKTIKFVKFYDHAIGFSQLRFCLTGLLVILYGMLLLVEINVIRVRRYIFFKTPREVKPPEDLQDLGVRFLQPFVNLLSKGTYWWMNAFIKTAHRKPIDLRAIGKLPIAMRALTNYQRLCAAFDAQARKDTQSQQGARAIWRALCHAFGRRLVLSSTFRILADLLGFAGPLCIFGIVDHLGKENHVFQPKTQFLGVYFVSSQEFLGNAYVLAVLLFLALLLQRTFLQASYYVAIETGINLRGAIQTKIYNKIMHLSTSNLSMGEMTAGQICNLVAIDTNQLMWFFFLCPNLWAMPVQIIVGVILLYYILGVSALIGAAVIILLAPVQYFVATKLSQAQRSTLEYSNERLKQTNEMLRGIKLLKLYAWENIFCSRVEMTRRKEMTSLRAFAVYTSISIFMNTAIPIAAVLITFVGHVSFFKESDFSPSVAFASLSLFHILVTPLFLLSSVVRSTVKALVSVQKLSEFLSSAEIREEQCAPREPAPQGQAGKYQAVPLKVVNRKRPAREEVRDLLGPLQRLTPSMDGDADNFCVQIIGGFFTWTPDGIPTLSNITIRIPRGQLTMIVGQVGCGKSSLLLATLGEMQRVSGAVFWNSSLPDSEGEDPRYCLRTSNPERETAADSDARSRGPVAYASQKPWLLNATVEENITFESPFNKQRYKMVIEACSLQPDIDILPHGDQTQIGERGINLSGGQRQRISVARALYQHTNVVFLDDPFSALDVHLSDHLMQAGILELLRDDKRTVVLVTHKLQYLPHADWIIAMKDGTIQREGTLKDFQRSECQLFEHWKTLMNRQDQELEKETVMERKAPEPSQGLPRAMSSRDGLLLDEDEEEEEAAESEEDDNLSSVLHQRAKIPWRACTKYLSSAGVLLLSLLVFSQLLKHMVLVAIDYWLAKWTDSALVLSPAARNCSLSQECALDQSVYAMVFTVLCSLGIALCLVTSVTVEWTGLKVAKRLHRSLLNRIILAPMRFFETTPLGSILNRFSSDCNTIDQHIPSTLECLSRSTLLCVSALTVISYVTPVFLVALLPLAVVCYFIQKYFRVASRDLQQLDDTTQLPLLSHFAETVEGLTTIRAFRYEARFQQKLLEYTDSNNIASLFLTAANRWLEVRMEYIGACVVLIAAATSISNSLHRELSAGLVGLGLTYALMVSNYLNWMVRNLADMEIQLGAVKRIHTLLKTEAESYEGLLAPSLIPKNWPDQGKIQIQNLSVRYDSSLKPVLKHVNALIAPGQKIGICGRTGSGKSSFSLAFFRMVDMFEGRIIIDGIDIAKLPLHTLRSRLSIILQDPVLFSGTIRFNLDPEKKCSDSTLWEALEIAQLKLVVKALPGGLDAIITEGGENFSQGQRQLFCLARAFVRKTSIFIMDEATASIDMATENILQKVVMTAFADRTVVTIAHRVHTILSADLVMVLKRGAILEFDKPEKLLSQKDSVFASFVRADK
# T1 sequence (Q61743 whole entry partner): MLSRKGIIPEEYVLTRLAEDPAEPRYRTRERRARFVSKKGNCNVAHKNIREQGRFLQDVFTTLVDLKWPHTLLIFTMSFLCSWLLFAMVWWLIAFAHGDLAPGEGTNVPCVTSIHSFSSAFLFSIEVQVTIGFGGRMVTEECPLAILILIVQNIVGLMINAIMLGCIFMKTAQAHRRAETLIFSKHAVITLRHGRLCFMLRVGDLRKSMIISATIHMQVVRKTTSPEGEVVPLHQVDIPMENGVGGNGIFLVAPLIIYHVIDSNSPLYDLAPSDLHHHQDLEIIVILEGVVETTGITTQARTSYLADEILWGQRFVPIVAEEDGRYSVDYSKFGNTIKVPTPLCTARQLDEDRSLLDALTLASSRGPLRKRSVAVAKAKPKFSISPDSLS
smiles,measurement,setting,value
O=C(O)[C@H](CC(=O)N1C[C@H]2CCCC[C@H]2C1)Cc1ccc(OCCF)cc1 [compound (7)],inhibition of the bond between the SU receptor and [3H]-glibenclamide,"SU receptor; compound 1×10^−4 to 1×10^−12 M, FIG. 2",inhibited the bond between the SU receptor and the [^3H]-glibenclamide in the concentration-dependent manner
same,EC50,"SU receptor; inhibition of [3H]-glibenclamide (1.85 pmol/L) binding, mouse islet cells 1.7×10^5 cells/sample, room temperature, 1 hour",23.5 nM
O=C(O)C(CC(=O)N1C[C@H]2CCCC[C@H]2C1)Cc1ccc(OCC[18F])cc1 (stereo partly shown) [compound (6)],PET imaging result (distinguishing the pancreas),pancreatic islets,the approximate position of the pancreas could be distinguished noninvasively
"O=C(O)[C@H](CC(=O)N1C[C@H]2CCCC[C@H]2C1)Cc1ccccc1 [mitiglinide, (+)-monocalcium bis [(2S, 3a, 7a-cis)-α-benzylhexahydro-γ-oxo-2-isoindolinebutyrate]dihydrate]",selectivity for SUR1 in vitro relative to nateglinide,SUR1,about 100 times
